Data taken from patent US20250340538A1, “IMIDAZOLONE DERIVATIVES AS INHIBITORS OF PROTEIN KINASES IN PARTICULAR DYRK1A, CLK1 AND/OR CLK4” (PERHA PHARMACEUTICALS, priority 2021, published 2025).
Counter-ions that a name gives are not always drawn.

Experiments:
[1] = target: T1, CLK1 (Homo sapiens, UniProt P49759); assay: Radiometric protein kinase assay (33PanQinase Activity Assay), CLK1; format: biochemical; conditions: class by IC50 on CLK1, from dose-response curves; read-out: Potency Class CLK1
T1 construct: GST-fusion or His-tag (not specified per kinase); purchased ProQinase GmbH; host or cells: Sf9 insect cells or E. coli (not specified per kinase)
T1 sequence (P49759 whole entry, the tested form may be a part): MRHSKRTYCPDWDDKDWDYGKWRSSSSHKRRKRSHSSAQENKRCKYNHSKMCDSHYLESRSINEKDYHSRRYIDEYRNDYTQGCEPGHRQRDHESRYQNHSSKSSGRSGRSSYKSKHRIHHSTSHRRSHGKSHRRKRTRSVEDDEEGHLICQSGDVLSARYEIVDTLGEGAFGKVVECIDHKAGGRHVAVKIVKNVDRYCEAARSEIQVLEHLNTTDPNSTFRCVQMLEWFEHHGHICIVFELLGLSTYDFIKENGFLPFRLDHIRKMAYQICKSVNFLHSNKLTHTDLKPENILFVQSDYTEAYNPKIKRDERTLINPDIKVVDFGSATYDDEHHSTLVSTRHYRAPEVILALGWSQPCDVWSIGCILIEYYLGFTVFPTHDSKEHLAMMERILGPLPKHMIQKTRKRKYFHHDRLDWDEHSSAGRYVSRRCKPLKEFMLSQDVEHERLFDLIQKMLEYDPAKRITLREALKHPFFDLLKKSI
Method: Assays were performed by ProQinase GmbH (Engesserstr. 4, D-79108 Freiburg, Germany. www.proqinase.com). The IC50 profile of all compounds was determined using 12 protein kinases (CDK2/cyclin E, CK1ε, CLK1, 2, 3, 4, DYRK1A, 1B, 2, 3, 4, GSK3β).
(§1) The compounds were provided as […] in 100% DMSO. Prior to testing, the 1 μM stock solutions were subjected to a serial, semi-logarithmic dilution using 100% DMSO as a solvent. […] In the process, 90 μl H2O were added to each well of each compound dilution plate. To minimize potential precipitation, the H2O was added to each plate only a few minutes before the transfer of the compound solutions into the assay plates. The plate was shaken thoroughly, resulting in a compound dilution plate/10% DMSO.
(§2) For the assays (see below), 5 μL solution from each well of the compound dilution plates/10% DMSO were transferred into the assay plates. The final volume of the assay was 50 μL. All compounds were tested at 10 final assay concentrations in the range from 10 μM to 30 nM. The final DMSO concentration in the reaction cocktails was 1% in all cases.
(§3) All protein kinases provided by ProQinase were expressed in Sf9 insect cells or in E. coli as recombinant GST-fusion proteins or His-tagged proteins, either as full-length or enzymatically active fragments. All kinases were produced from human cDNAs and purified by either GSH-affinity chromatography or immobilized metal. Affinity tags were removed from a number of kinases during purification. The purity of the protein kinases was examined by SDS-PAGE/Coomassie staining, the identity was checked by mass spectroscopy.
(§4) A radiometric protein kinase assay (33PanQinase® Activity Assay) was used for measuring the kinase activity of the 12 protein kinases. All kinase assays were performed in 96-well FlashPlates™ from PerkinElmer (Boston, MA, USA) in a 50 μL reaction volume. The reaction cocktail was pipetted in four steps in the following order: • 25 μL of assay buffer (standard buffer/[γ-^33P]-ATP), • 10 μL of ATP solution (in H2O), • 5 μL of test compound (in 10% DMSO), • 10 μL of enzyme/substrate mixture.
(§5) The reaction cocktails were incubated at 30° C. for 60 minutes. The reaction was stopped with 50 μL of 2% (v/v) H3PO4, plates were aspirated and washed two times with 200 μL 0.9% (w/v) NaCl. Incorporation of ^33Pi was determined with a microplate scintillation counter (Microbeta, Wallac). The IC50 values for all compounds were calculated from the dose response curves
As a parameter for assay quality, the Z′-factor (Zhang et al., J. Biomol. Screen. 2: 67-73, 1999) for the low and high controls of each assay plate (n=8) was used. ProQinase's criterion for repetition of an assay plate is a Z′-factor below 0.4 (Iversen et al., J. Biomol. Screen. 3: 247-252, 2006).

[2] = target: T2, DYRK1A (Homo sapiens, UniProt Q13627); assay: Radiometric protein kinase assay (33PanQinase Activity Assay), DYRK1A; format: biochemical; conditions: for IC50: class by IC50 on DYRK1A, from dose-response curves, read-out: Potency Class DYRK1A; for Selectivity Class DYRK1A vs. CLK1: ratio of IC50 on CLK1 over IC50 on DYRK1A; for Selectivity Class DYRK1A vs. DYRK1B: ratio of IC50 on DYRK1B over IC50 on DYRK1A
T2 construct: GST-fusion or His-tag (not specified per kinase); purchased ProQinase GmbH; host or cells: Sf9 insect cells or E. coli (not specified per kinase)
Method: The IC50 profile of all compounds was determined using 12 protein kinases (CDK2/cyclin E, CK1ε, CLK1, 2, 3, 4, DYRK1A, 1B, 2, 3, 4, GSK3β).
as §1, §2, §3, §4, §5

IC50 [1] | IC50 [2] | Selectivity Class DYRK1A vs. CLK1 [2] | Selectivity Class DYRK1A vs. DYRK1B [2] | SMILES
> 50 nM | > 50 nM | III (ratio between 0.5 and 2 fold) | II (ratio between 2 and 10 fold) | O=C1NC(NCc2ccccc2C(F)(F)F)=N/C1=C\c1ccc2nccnc2c1 [Compound 22, (4Z)-4-(quinoxalin-6-ylmethylene)-2-[[2-(trifluoromethyl)phenyl]methylamino]-1H-imidazol-5-one]
> 50 nM | 10 to 25 nM | II (ratio between 2 and 10 fold) | II (ratio between 2 and 10 fold) | O=C1NC(N[C@H]2c3ccccc3C[C@@H]2O)=N/C1=C\c1ccc2nccnc2c1 [Compound 23, (4Z)-2-[[(1S,2S)-2-hydroxyindan-1-yl]amino]-4-(quinoxalin-6-ylmethylene)-1H-imidazol-5-one]
> 50 nM | > 50 nM | III (ratio between 0.5 and 2 fold) | II (ratio between 2 and 10 fold) | COC[C@H](NC1=N/C(=C\c2ccc3nccnc3c2)C(=O)N1)c1ccccc1 [Compound 26, (4Z)-2-[[(1R)-2-methoxy-1-phenyl-ethyl]amino]-4-(quinoxalin-6-ylmethylene)-1H-imidazol-5-one]
> 50 nM | > 50 nM | III (ratio between 0.5 and 2 fold) | II (ratio between 2 and 10 fold) | O=C1NC(NC[C@H](O)c2ccccc2)=N/C1=C\c1ccc2nccnc2c1 [Compound 27, (4Z)-2-[[(2R)-2-hydroxy-2-phenyl-ethyl]amino]-4-(quinoxalin-6-ylmethylene)-1H-imidazol-5-one]
25 to 50 nM | 25 to 50 nM | III (ratio between 0.5 and 2 fold) | II (ratio between 2 and 10 fold) | NC[C@H](NC1=N/C(=C\c2ccc3nccnc3c2)C(=O)N1)c1ccccc1 [Compound 28, (4Z)-2-[[(1R)-2-amino-1-phenyl-ethyl]amino]-4-(quinoxalin-6-ylmethylene)-1H-imidazol-5-one dihydrochloride]
> 50 nM | 25 to 50 nM | III (ratio between 0.5 and 2 fold) | II (ratio between 2 and 10 fold) | NC[C@@H](NC1=N/C(=C\c2ccc3nccnc3c2)C(=O)N1)c1ccccc1 [Compound 29, (4Z)-2-[[(1S)-2-Amino-1-phenyl-ethyl]amino]-4-(quinoxalin-6-ylmethylene)-1H-imidazol-5-one dihydrochloride]
> 50 nM | > 50 nM | IV (ratio between 0.1 and 0.5 fold) | II (ratio between 2 and 10 fold) | Cc1cnc(CNC2=N/C(=C\c3ccc4nccnc4c3)C(=O)N2)cn1 [Compound 30, (4Z)-2-[(5-methylpyrazin-2-yl)methylamino]-4-(quinoxalin-6-ylmethylene)-1H-imidazol-5-one]
> 50 nM | > 50 nM | III (ratio between 0.5 and 2 fold) | III (ratio between 0.5 and 2 fold) | Cc1csc(CNC2=N/C(=C\c3ccc4nccnc4c3)C(=O)N2)n1 [Compound 31, (4Z)-2-[(4-methylthiazol-2-yl)methylamino]-4-(quinoxalin-6-ylmethylene)-1H-imidazol-5-one]
> 50 nM | > 50 nM | III (ratio between 0.5 and 2 fold) | II (ratio between 2 and 10 fold) | O=C1NC(NCC2CCOCC2)=N/C1=C\c1ccc2nccnc2c1 [Compound 32, (4Z)-4-(quinoxalin-6-ylmethylene)-2-(tetrahydropyran-4-ylmethylamino)-1H-imidazol-5-one]
> 50 nM | 25 to 50 nM | II (ratio between 2 and 10 fold) | II (ratio between 2 and 10 fold) | CN1CCN(c2ccc(NC3=N/C(=C\c4ccc5nccnc5c4)C(=O)N3)cc2)CC1 [Compound 33, (4Z)-2-[4-(4-Methylpiperazin-1-yl)anilino]-4-(quinoxalin-6-ylmethylene)-1H-imidazol-5-one]
> 50 nM | > 50 nM | III (ratio between 0.5 and 2 fold) | II (ratio between 2 and 10 fold) | Cn1ccc(NC2=N/C(=C\c3ccc4nccnc4c3)C(=O)N2)n1 [Compound 34, (4Z)-2-[(1-methylpyrazol-3-yl)amino]-4-(quinoxalin-6-ylmethylene)-1H-imidazol-5-one]
> 50 nM | > 50 nM | II (ratio between 2 and 10 fold) | II (ratio between 2 and 10 fold) | O=C1NC(Nc2ccccn2)=N/C1=C\c1ccc2nccnc2c1 [Compound 35, (4Z)-2-(2-pyridylamino)-4-(quinoxalin-6-ylmethylene)-1H-imidazol-5-one]
> 50 nM | > 50 nM | III (ratio between 0.5 and 2 fold) | II (ratio between 2 and 10 fold) | O=C1NC(N[C@@H]2CCOC2)=N/C1=C\c1ccc2nccnc2c1 [Compound 37, (4Z)-4-(quinoxalin-6-ylmethylene)-2-[[(3R)-tetrahydrofuran-3-yl]amino]-1H-imidazol-5-one]
> 50 nM | > 50 nM | III (ratio between 0.5 and 2 fold) | II (ratio between 2 and 10 fold) | O=C1NC(N[C@H]2CCCOC2)=N/C1=C\c1ccc2nccnc2c1 [Compound 38, (4Z)-4-(quinoxalin-6-ylmethylene)-2-[[(3S)-tetrahydropyran-3-yl]amino]-1H-imidazol-5-one]
> 50 nM | 25 to 50 nM | III (ratio between 0.5 and 2 fold) | II (ratio between 2 and 10 fold) | O=C1NC(N[C@@H]2CCCOC2)=N/C1=C\c1ccc2nccnc2c1 [Compound 39, (4Z)-4-(quinoxalin-6-ylmethylene)-2-[[(3R)-tetrahydropyran-3-yl]amino]-1H-imidazol-5-one]
> 50 nM | > 50 nM | III (ratio between 0.5 and 2 fold) | II (ratio between 2 and 10 fold) | O=C1NC(N[C@@H]2COCC[C@H]2O)=N/C1=C\c1ccc2nccnc2c1 [Compound 40, (4Z)-2-[[(3R,4R)-4-Hydroxytetrahydropyran-3-yl]amino]-4-(quinoxalin-6-ylmethylene)-1H-imidazol-5-one]
> 50 nM | > 50 nM | III (ratio between 0.5 and 2 fold) | II (ratio between 2 and 10 fold) | O=C1NC(NC2COCCOC2)=N/C1=C\c1ccc2nccnc2c1 [Compound 42, (4Z)-2-(1,4-dioxepan-6-ylamino)-4-(quinoxalin-6-ylmethylene)-1H-imidazol-5-one]
> 50 nM | > 50 nM | III (ratio between 0.5 and 2 fold) | II (ratio between 2 and 10 fold) | O=C1NC(NC2CCCCC2)=N/C1=C\c1ccc2ncccc2c1 [Compound 43, (4Z)-2-(Cyclohexylamino)-4-(6-quinolylmethylene)-1H-imidazol-5-one]
> 50 nM | > 50 nM | III (ratio between 0.5 and 2 fold) | II (ratio between 2 and 10 fold) | O=C1NC(NC2CCCCCC2)=N/C1=C\c1ccc2ncccc2c1 [Compound 44, (4Z)-2-(cycloheptylamino)-4-(6-quinolylmethylene)-1H-imidazol-5-one]
